Activity calls are given as the source filed them. No cut-off for these calls is given here.
Columns and labels:
4T1 [1] = assay: Anticancer activity against mouse 4T1 cells assessed as inhibition of cell growth incubated for 24 hrs by CCK-8 assay; format: functional, cell-based; details: 4T1, 24 h
4T1 [2] = assay: Anticancer activity against mouse 4T1 cells assessed as inhibition of cell growth incubated for 48 hrs by CCK-8 assay; format: functional, cell-based; details: 4T1, 48 h
4T1 [3] = assay: Anticancer activity against mouse 4T1 cells assessed as inhibition of cell growth incubated for 72 hrs by CCK-8 assay; format: functional, cell-based; details: 4T1, 72 h
4T1 [4] = assay: Induction of apoptosis in mouse 4T1 cells assessed as apoptotic rate at 1000 micromol/L incubated for 24 hrs by Annexin-V/PI staining based flow cytometry relative to control; format: functional; details: dose 1000 µmol/L, at 1000 µM
4T1 [5] = assay: Induction of apoptosis in mouse 4T1 cells assessed as apoptotic rate at 4000 micromol/L incubated for 24 hrs by Annexin-V/PI staining based flow cytometry relative to control; format: functional; details: dose 4000 µmol/L, at 4000 µM
4T1 [6] = assay: Induction of apoptosis in mouse 4T1 cells assessed as apoptotic rate at 8000 micromol/L incubated for 24 hrs by Annexin-V/PI staining based flow cytometry relative to control; format: functional; details: dose 8000 µmol/L, at 8000 µM
4T1 [7] = assay: Induction of mitochondrial membrane potential loss in mouse 4T1 cells assessed as green fluorescence at 4000 uM incubated for 24 hrs by JC-1 staining based flow cytometric analysis (reference value: 11.7%); format: cell-based
4T1 [8] = assay: Induction of mitochondrial membrane potential loss in mouse 4T1 cells assessed as red fluorescence at 4000 uM incubated for 24 hrs by JC-1 staining based flow cytometric analysis (Rvb= 87.9%); format: cell-based
[9] = Toxicity in BALB/c mouse implanted with mouse 4T1 cells assessed as change in lung histopathology at 0.2 mmol/Kg, po administered once every day for 14 days; format: organism-based; details: in vivo, 336 h, time 14 day
[10] = Toxicity in BALB/c mouse implanted with mouse 4T1 cells assessed as increase in white blood cells at 0.2 mmol/Kg, po administered once every day for 14 days by routine blood analysis; format: organism-based; details: in vivo, 336 h, time 14 day
4T1 [11] = assay: Antitumor activity against mouse 4T1 cells implanted in BALB/c mouse assessed as tumor growth inhibition at 0.2 mmol/Kg, po administered once every day for 14 days relative to control; format: functional; details: 4T1, 336 h, time 14 day, read-out: TGI
4T1 [12] = assay: Antitumor activity against mouse 4T1 cells implanted in BALB/c mouse assessed as tumor cell shrinkage at 0.2 mmol/Kg, po administered once every day for 14 days by histological staining based analysis; format: functional, organism-based; details: time 14.0 day
[13] = Toxicity in BALB/c mouse implanted with mouse 4T1 cells assessed as body weight loss at 0.2 mmol/Kg, po administered once daily for 14 days; format: organism-based; details: in vivo, 336 h, time 14 day
[14] = Toxicity in BALB/c mouse implanted with mouse 4T1 cells assessed as increase in lymphocytes at 0.2 mmol/Kg, po administered once every day for 14 days by routine blood analysis; format: organism-based; details: in vivo, 336 h, time 14 day
[15] = Toxicity in BALB/c mouse implanted with mouse 4T1 cells assessed as increase in neutrophil granulocytes at 0.2 mmol/Kg, po administered once every day for 14 days by routine blood analysis; format: organism-based; details: in vivo, 336 h, time 14 day
[16] = Toxicity in BALB/c mouse implanted with mouse 4T1 cells assessed as increase in monocytes at 0.2 mmol/Kg, po administered once every day for 14 days by routine blood analysis; format: organism-based; details: in vivo, 336 h, time 14 day
[17] = Toxicity in BALB/c mouse implanted with mouse 4T1 cells assessed as increase in AST level at 0.2 mmol/Kg, po administered once every day for 14 days by routine blood analysis; format: organism-based; details: in vivo, 336 h, time 14 day
[18] = Toxicity in BALB/c mouse implanted with mouse 4T1 cells assessed as increase in ALT level at 0.2 mmol/Kg, po administered once every day for 14 days by routine blood analysis; format: organism-based; details: in vivo, 336 h, time 14 day
[19] = Toxicity in BALB/c mouse implanted with mouse 4T1 cells assessed as effect on BUN level at 0.2 mmol/Kg, po administered once every day for 14 days by routine blood analysis; format: organism-based; details: in vivo, 336 h, time 14 day
[20] = Toxicity in BALB/c mouse implanted with mouse 4T1 cells assessed as effect on CREA level at 0.2 mmol/Kg, po administered once every day for 14 days by routine blood analysis; format: organism-based; details: in vivo, 336 h, time 14 day
[21] = Toxicity in BALB/c mouse implanted with mouse 4T1 cells assessed as reduction in spleen index at 0.2 mmol/Kg, po administered once every day for 14 days relative to control; format: organism-based; details: in vivo, 336 h, time 14 day
[22] = Toxicity in BALB/c mouse implanted with mouse 4T1 cells assessed as change in heart histopathology at 0.2 mmol/Kg, po administered once every day for 14 days; format: organism-based; details: in vivo, 336 h, time 14 day
[23] = Toxicity in BALB/c mouse implanted with mouse 4T1 cells assessed as change in liver histopathology at 0.2 mmol/Kg, po administered once every day for 14 days; format: organism-based; details: in vivo, 336 h, time 14 day
[24] = Toxicity in BALB/c mouse implanted with mouse 4T1 cells assessed as change in kidney histopathology at 0.2 mmol/Kg, po administered once every day for 14 days; format: organism-based; details: in vivo, 336 h, time 14 day
4T1 [25] = assay: Antitumor activity against mouse 4T1 cells implanted in BALB/c mouse assessed as change in tumor weight at 0.2 mmol/Kg, po administered once every day for 14 days; format: functional, organism-based; details: time 14.0 day
[26] = Toxicity in BALB/c mouse implanted with mouse 4T1 cells assessed as increase in mean platelet volume at 0.2 mmol/Kg, po administered once every day for 14 days by routine blood analysis; format: organism-based; details: in vivo, 336 h, time 14 day
[27] = Toxicity in BALB/c mouse implanted with mouse 4T1 cells assessed as blurred spleen morphology at 0.2 mmol/Kg, po administered once every day for 14 days; format: organism-based; details: in vivo, 336 h, time 14 day
[28] = Toxicity in BALB/c mouse implanted with mouse 4T1 cells assessed as splenic edema at 0.2 mmol/Kg, po administered once every day for 14 days; format: organism-based; details: in vivo, 336 h, time 14 day
[29] = Toxicity in BALB/c mouse implanted with mouse 4T1 cells assessed as increase in splenic red pulp at 0.2 mmol/Kg, po administered once every day for 14 days; format: organism-based; details: in vivo, 336 h, time 14 day
[30] = Prodrug conversion in carboxylesterase (unknown origin) solution assessed as drug hydrolysis by measuring stachydrine release at 3 to 20 hrs; format: ADME, Homo sapiens; details: time 3-20 hrs
[31] = Prodrug conversion in cell culture medium containing 10% FBS assessed as drug hydrolysis by measuring stachydrine release at 3 to 20 hrs; format: ADME; details: cattle; time 3-20 hrs
[32] = Prodrug conversion in serum (unknown origin) assessed as drug hydrolysis by measuring stachydrine release at 3 to 20 hrs; format: ADME, cell-free; details: time 3-20 hrs
4T1 [33] = assay: Antitumor activity against mouse 4T1 cells implanted in BALB/c mouse assessed as tumor cell necrosis at 0.2 mmol/Kg, po administered once every day for 14 days by histological staining based analysis; format: functional, organism-based; details: time 14.0 day
4T1 [34] = assay: Induction of apoptosis in mouse 4T1 cells assessed as apoptotic rate at 0.04 micromol/L incubated for 24 hrs by Annexin-V/PI staining based flow cytometry relative to control; format: functional; details: dose 0.04 µmol/L, at 0.04 µM
4T1 [35] = assay: Induction of apoptosis in mouse 4T1 cells assessed as apoptotic rate at 0.3 micromol/L incubated for 24 hrs by Annexin-V/PI staining based flow cytometry relative to control; format: functional; details: dose 0.3 µmol/L, at 0.3 µM
4T1 [36] = assay: Induction of apoptosis in mouse 4T1 cells assessed as apoptotic rate at 2 micromol/L incubated for 24 hrs by Annexin-V/PI staining based flow cytometry relative to control; format: functional; details: dose 2 µmol/L, at 2 µM
4T1 [37] = assay: Induction of apoptosis in mouse 4T1 cells assessed as apoptotic rate at 50 micromol/L incubated for 24 hrs by Annexin-V/PI staining based flow cytometry relative to control; format: functional; details: dose 50 µmol/L, at 50 µM
4T1 [38] = assay: Induction of apoptosis in mouse 4T1 cells assessed as apoptotic rate at 250 micromol/L incubated for 24 hrs by Annexin-V/PI staining based flow cytometry relative to control; format: functional; details: dose 250 µmol/L, at 250 µM
4T1 [39] = assay: Induction of mitochondrial membrane potential loss in mouse 4T1 cells assessed as green fluorescence at 250 uM incubated for 24 hrs by JC-1 staining based flow cytometric analysis (reference value: 11.7%); format: cell-based
4T1 [40] = assay: Induction of mitochondrial membrane potential loss in mouse 4T1 cells assessed as red fluorescence at 250 uM incubated for 24 hrs by JC-1 staining based flow cytometric analysis (Rvb= 87.9%); format: cell-based
4T1 [41] = assay: Inhibition of cell migration in mouse 4T1 cells assessed as reduction in wound healing incubated for 24 hrs by microscopic analysis; format: functional, cell-based

CCCCOC(=O)C1CCC[N+]1(C)C.[Cl-] (stereo unspecified)
IC50 (4T1 [1]): 6380 µM | IC50 (4T1 [2]): 6310 µM | IC50 (4T1 [3]): 5170 µM | Activity (4T1 [4]): 29.06% | Activity (4T1 [5]): 39.8% | Activity (4T1 [6]): 51.28% | Activity (4T1 [7]): 38.9% | Activity (4T1 [8]): 60.9% | Activity [9]: Non-Toxic | Activity [10]: Non-Toxic | inhibition in vivo at 200 µmol/kg (4T1 [11]): 45.1% | Activity (4T1 [12]): Active | Activity [13]: Toxic | Activity [14]: Non-Toxic | Activity [15]: Non-Toxic | Activity [16]: Non-Toxic | Activity [17]: Toxic | Activity [18]: Toxic | Activity [19]: Non-Toxic | Activity [20]: Non-Toxic | Activity [21]: Toxic | Activity [22]: Non-Toxic | Activity [23]: Non-Toxic | Activity [24]: Non-Toxic | Activity (4T1 [25]): Active | Activity [26]: Non-Toxic | Activity [27]: Toxic | Activity [28]: Toxic | Activity [29]: Toxic | Drug metabolism [30]: Metabolite_Detected | Drug metabolism [31]: Metabolite_Detected | Drug metabolism [32]: Metabolite_Detected | Activity (4T1 [33]): Active

CCCCCCCCCCCCCCCCOC(=O)C1CCC[N+]1(C)C.[Cl-] (stereo unspecified)
IC50 (4T1 [1]): 0.858 µM | IC50 (4T1 [2]): 0.701 µM | IC50 (4T1 [3]): 0.341 µM | Activity (4T1 [34]): 52% | Activity (4T1 [35]): 62.1% | Activity (4T1 [36]): 72% | Drug metabolism [30]: Metabolite_Detected | Drug metabolism [31]: Metabolite_Detected | Drug metabolism [32]: Metabolite_Detected

CCCCCCCCOC(=O)C1CCC[N+]1(C)C.[Cl-] (stereo unspecified)
IC50 (4T1 [1]): 508 µM | IC50 (4T1 [2]): 249 µM | IC50 (4T1 [3]): 140 µM | Activity (4T1 [4]): 80.8% | Activity (4T1 [37]): 36.82% | Activity (4T1 [38]): 69.9% | Activity (4T1 [39]): 53.5% | Activity (4T1 [40]): 46.5% | inhibition (4T1 [41]): Dose-Dependent Effect | Activity [9]: Non-Toxic | Activity [10]: Non-Toxic | inhibition in vivo at 200 µmol/kg (4T1 [11]): 51.5% | Activity (4T1 [12]): Active | Activity [13]: Toxic | Activity [14]: Non-Toxic | Activity [15]: Non-Toxic | Activity [16]: Non-Toxic | Activity [17]: Toxic | Activity [18]: Toxic | Activity [19]: Non-Toxic | Activity [20]: Non-Toxic | Activity [21]: Toxic | Activity [22]: Non-Toxic | Activity [23]: Non-Toxic | Activity [24]: Non-Toxic | Activity (4T1 [25]): Active | Activity [26]: Non-Toxic | Activity [27]: Toxic | Activity [28]: Toxic | Activity [29]: Toxic | Drug metabolism [30]: Metabolite_Detected | Drug metabolism [31]: Metabolite_Detected | Drug metabolism [32]: Metabolite_Detected | Activity (4T1 [33]): Active
